Patent US11173151B2, “Substituted triazole derivatives and uses thereof” (BAYER AKTIENGESELLSCHAFT, priority 2017, dated 2021)
Where two headings read alike, the source gives them in different places.

Experiments:
human V1a receptor = biological target: T1, human V1a receptor (Homo sapiens, UniProt P37288); experiment: Cellular in vitro assay for determining vasopressin receptor activity, V1a receptor cell line (CHO, aequorin luminescence); type: cell-based; settings: for IC50: CHO cell line transfected with human V1a receptor, [Arg]-vasopressin at EC50 concentration, read-out: IC50 hV1a; for ratio IC50 hV2/hV1a: selectivity ratio IC50 hV2 / IC50 hV1a
T1 construct: expressed in transfected cells; host or cells: CHO K1 (ATCC), also stably transfected with a modified aequorin
T1 sequence (P37288 whole entry): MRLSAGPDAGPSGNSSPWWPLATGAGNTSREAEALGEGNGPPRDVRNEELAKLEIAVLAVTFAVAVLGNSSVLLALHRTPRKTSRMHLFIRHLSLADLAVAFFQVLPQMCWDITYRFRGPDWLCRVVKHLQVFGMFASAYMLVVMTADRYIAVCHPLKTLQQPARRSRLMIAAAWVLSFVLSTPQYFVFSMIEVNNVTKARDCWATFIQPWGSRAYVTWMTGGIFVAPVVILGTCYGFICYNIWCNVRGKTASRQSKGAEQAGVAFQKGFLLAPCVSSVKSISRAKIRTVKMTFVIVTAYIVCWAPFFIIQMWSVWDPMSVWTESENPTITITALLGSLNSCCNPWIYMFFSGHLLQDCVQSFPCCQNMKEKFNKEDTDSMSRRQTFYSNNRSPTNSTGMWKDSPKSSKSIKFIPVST
Summary of the method: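 Antagonism is measured in stable CHO K1 transfectants coexpressing the Gαq-coupled receptor and a calcium-sensitive aequorin photoprotein. Agonist challenge uses [Arg]-vasopressin at EC50 after a 10-minute compound exposure; IC50 values come from the luminescence signal.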

human V2 receptor = biological target: T2, human V2 receptor (Homo sapiens, UniProt P30518); experiment: Cellular in vitro assay for determining vasopressin receptor activity, V2 receptor cell line (CHO, CRE-luciferase); type: cell-based; settings: CHO cell line transfected with human V2 receptor, [Arg8]-vasopressin at EC50 concentration, read-out: IC50 hV2
T2 construct: expressed in transfected cells; host or cells: CHO K1 (ATCC) expressing firefly luciferase under a CRE-responsive promoter
T2 sequence (P30518 whole entry): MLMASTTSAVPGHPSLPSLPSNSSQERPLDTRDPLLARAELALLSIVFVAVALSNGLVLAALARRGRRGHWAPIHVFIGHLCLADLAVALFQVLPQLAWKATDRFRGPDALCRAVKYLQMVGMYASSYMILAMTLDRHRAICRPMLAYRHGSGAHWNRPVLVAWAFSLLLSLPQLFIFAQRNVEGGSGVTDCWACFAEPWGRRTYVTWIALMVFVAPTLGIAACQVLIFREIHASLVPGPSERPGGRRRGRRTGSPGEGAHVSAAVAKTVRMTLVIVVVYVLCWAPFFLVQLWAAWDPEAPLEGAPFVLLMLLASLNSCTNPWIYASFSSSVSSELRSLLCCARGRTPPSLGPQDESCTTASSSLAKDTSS

| Structure (SMILES) | IC50 (human V1a receptor) [nM] | ratio IC50 hV2/hV1a (human V1a receptor) | IC50 (human V2 receptor; 3 hours) [nM] | IC50 (human V2 receptor) [nM] |
| --- | --- | --- | --- | --- |
| CONC(=O)c1ccccc1-n1cnc(Cn2nc(-c3ccc(Cl)cc3)n(C[C@H](O)C(F)(F)F)c2=O)n1 [Example 232, 2-[3-({3-(4-Chlorophenyl)-5-oxo-4-[(2S)-3,3,3-trifluoro-2-hydroxypropyl]-4,5-dihydro-1H-1,2,4-triazol-1-yl}methyl)-1H-1,2,4-triazol-1-yl]-N-methoxybenzamide] | 2.2 | 243.2 | 535 |  |
| O=C(NCc1cc(F)ccc1F)c1ccccc1-n1cnc(Cn2nc(-c3ccc(Cl)cc3)n(C[C@H](O)C(F)(F)F)c2=O)n1 [Example 207, 2-[3-({3-(4-chlorophenyl)-5-oxo-4-[(2S)-3,3,3-trifluoro-2-hydroxypropyl]-4,5-dihydro-1H-1,2,4-triazol-1-yl}methyl)-1H-1,2,4-triazol-1-yl]-N-(2,5-difluorobenzyl)benzamide] | 5.35 | 57.0 | 305 |  |
| O=C1CC[C@@H](CNC(=O)c2ccccc2-n2cnc(Cn3nc(-c4ccc(Cl)cc4)n(C[C@H](O)C(F)(F)F)c3=O)n2)N1 [Example 178, 2-[3-({3-(4-Chlorophenyl)-5-oxo-4-[(2S)-3,3,3-trifluoro-2-hydroxypropyl]-4,5-dihydro-1H-1,2,4-triazol-1-yl}methyl)-1H-1,2,4-triazol-1-yl]-N-{[(2S)-5-oxopyrrolidin-2-yl]methyl}benzamide] | 18.5 | 97.3 | 1800 |  |
| NC(=O)C1CN(C(=O)c2ccccc2-n2cnc(Cn3nc(-c4ccc(Cl)cc4)n(C[C@H](O)C(F)(F)F)c3=O)n2)C1 [Example 189, 1-{2-[3-({3-(4-Chlorophenyl)-5-oxo-4-[(2S)-3,3,3-trifluoro-2-hydroxypropyl]-4,5-dihydro-1H-1,2,4-triazol-1-yl}methyl)-1H-1,2,4-triazol-1-yl]benzoyl}azetidine-3-carboxamide] | 60.8 | 60.1 | 3650 |  |
| O=C(Nc1ncccc1-n1cnc(Cn2nc(-c3ccc(Cl)cc3)n(C[C@H](O)C(F)(F)F)c2=O)n1)C1CC1F (single isomer, unassigned) [Example 77] | 12 | 195.8 | 2350 |  |
| CC1(C(=O)Nc2ncccc2-n2cnc(Cn3nc(-c4ccc(Cl)cc4)n(C[C@H](O)C(F)(F)F)c3=O)n2)COC1 [Example 118] | 140 | 8.2 | 1150 |  |
| CCn1nccc1C(=O)Nc1ncccc1-n1cnc(Cn2nc(-c3ccc(Cl)cc3)n(C[C@H](O)C(F)(F)F)c2=O)n1 [Example 111] | 4.7 | 276.6 | 1300 |  |
| O=C(Nc1cccnc1-n1cnc(Cn2nc(-c3ccc(Cl)cc3)n(C[C@H](O)C(F)(F)F)c2=O)n1)C1CC1F (single isomer, unassigned) [Example 55] | 3.65 | 190.4 | 695 |  |
| O=C(Nc1ncccc1-n1cnc(Cn2nc(-c3ccc(Cl)cc3)n(C[C@H](O)C(F)(F)F)c2=O)n1)c1ccno1 [Example 163] | 28 | 46.4 | 1300 |  |
| O=C(NCC(F)(F)F)c1ccccc1-n1cnc(Cn2nc(-c3ccc(Cl)cc3)n(C[C@@H](O)C(F)(F)F)c2=O)n1 [Example 168, 2-[3-({3-(4-Chlorophenyl)-5-oxo-4-[(2R)-3,3,3-trifluoro-2-hydroxypropyl]-4,5-dihydro-1H-1,2,4-triazol-1-yl}methyl)-1H-1,2,4-triazol-1-yl]-N-(2,2,2-trifluoroethyl)benzamide] | 28.5 | 54.1 | 1540 |  |
| COCC(=O)Nc1cccnc1-n1cnc(Cn2nc(-c3ccc(Cl)cc3)n(C[C@H](O)C(F)(F)F)c2=O)n1 [Example 40, N-{2-[3-({3-(4-Chlorophenyl)-5-oxo-4-[(2S)-3,3,3-trifluoro-2-hydroxypropyl]-4,5-dihydro-1H-1,2,4-triazol-1-yl}methyl)-1H-1,2,4-triazol-1-yl]pyridin-3-yl}-2-methoxyacetamide] | 25.5 | 13.7 | 350 |  |
| CC1(C(=O)Nc2ncccc2-n2cnc(Cn3nc(-c4ccc(Cl)cc4)n(C[C@H](O)C(F)(F)F)c3=O)n2)CCCCC1 [Example 113] | 91 | 9.2 | 835 |  |
| Cn1cncc1C(=O)Nc1ncccc1-n1cnc(Cn2nc(-c3ccc(Cl)cc3)n(C[C@H](O)C(F)(F)F)c2=O)n1 [Example 132] | 45.5 | 113.2 | 5150 |  |

Other lines, results leading:

| IC50 (human V1a receptor) [nM] | ratio IC50 hV2/hV1a (human V1a receptor) | IC50 (human V2 receptor; 3 hours) [nM] | IC50 (human V2 receptor) [nM] | Structure (SMILES) |
| --- | --- | --- | --- | --- |
| 2.55 | 484.3 | 1240 |  | CC1CCCN(C(=O)c2ccccc2-n2cnc(Cn3nc(-c4ccc(Cl)cc4)n(C[C@H](O)C(F)(F)F)c3=O)n2)C1C (mixture of isomers) [Example 275, 5-(4-Chlorophenyl)-2-[(1-{2-[(2,3-dimethylpiperidin-1-yl)carbonyl]phenyl}-1H-1,2,4-triazol-3-yl)methyl]-4-[(2S)-3,3,3-trifluoro-2-hydroxypropyl]-2,4-dihydro-3H-1,2,4-triazol-3-one] |
| 14.5 | 241.4 | 3500 |  | COC1CCN(C(=O)c2ccccc2-n2cnc(Cn3nc(-c4ccc(Cl)cc4)n(C[C@H](O)C(F)(F)F)c3=O)n2)CC1 [Example 271, 5-(4-Chlorophenyl)-2-[(1-{2-[(4-methoxypiperidin-1-yl)carbonyl]phenyl}-1H-1,2,4-triazol-3-yl)methyl]-4-[(2S)-3,3,3-trifluoro-2-hydroxypropyl]-2,4-dihydro-3H-1,2,4-triazol-3-one] |
| 74.5 | 77.9 |  | 5800 | O=C(NC1(C(F)(F)F)CC1)c1cccc(Cl)c1-n1cnc(Cn2nc(-c3ccc(Cl)cc3)n(C[C@@H](O)C(F)(F)F)c2=O)n1 [Example 403, 3-Chloro-2-[3-({3-(4-chlorophenyl)-5-oxo-4-[(2R)-3,3,3-trifluoro-2-hydroxypropyl]-4,5-dihydro-1H-1,2,4-triazol-1-yl}methyl)-1H-1,2,4-triazol-1-yl]-N-[1-(trifluoromethyl)cyclopropyl]benzamide] |
| 17 | 132.4 | 2250 |  | O=C(c1cccc(Cl)c1-n1cnc(Cn2nc(-c3ccc(Cl)cc3)n(C[C@H](O)C(F)(F)F)c2=O)n1)N1CCCCC1 [Example 381, 5-(4-Chlorophenyl)-2-({1-[2-chloro-6-(piperidin-1-ylcarbonyl)phenyl]-1H-1,2,4-triazol-3-yl}methyl)-4-[(2S)-3,3,3-trifluoro-2-hydroxypropyl]-2,4-dihydro-3H-1,2,4-triazol-3-one] |
| 1.33 | 169.8 | 225 |  | O=C(Nc1cncc(F)c1)c1ccccc1-n1cnc(Cn2nc(-c3ccc(Cl)cc3)n(C[C@H](O)C(F)(F)F)c2=O)n1 [Example 255, 2-[3-({3-(4-Chlorophenyl)-5-oxo-4-[(2S)-3,3,3-trifluoro-2-hydroxypropyl]-4,5-dihydro-1H-1,2,4-triazol-1-yl}methyl)-1H-1,2,4-triazol-1-yl]-N-(5-fluoropyridin-3-yl)benzamide] |
| 26 | 390.4 |  | 10100 | O=C(NC1CC1F)c1cccc(Cl)c1-n1cnc(Cn2nc(-c3ccc(Cl)cc3)n(C[C@@H](O)C(F)(F)F)c2=O)n1 (mixture of isomers) [Example 406, 3-Chloro-2-[3-({3-(4-chlorophenyl)-5-oxo-4-[(2R)-3,3,3-trifluoro-2-hydroxypropyl]-4,5-dihydro-1H-1,2,4-triazol-1-yl}methyl)-1H-1,2,4-triazol-1-yl]-N-[2-fluorocyclopropyl]benzamide] |
| 44.5 | 21.2 |  | 945 | O=C(NCC1CC1)c1ncccc1-n1cnc(Cn2nc(-c3ccc(Cl)cc3)n(C[C@H](O)C(F)(F)F)c2=O)n1 [Example 432, 3-[3-({3-(4-Chlorophenyl)-5-oxo-4-[(2S)-3,3,3-trifluoro-2-hydroxypropyl]-4,5-dihydro-1H-1,2,4-triazol-1-yl}methyl)-1H-1,2,4-triazol-1-yl]-N-(cyclopropylmethyl)pyridine-2-carboxamide] |
| 4.55 | 263.7 | 1200 |  | O=C(N[C@H]1CC[C@H](O)CC1)c1ccccc1-n1cnc(Cn2nc(-c3ccc(Cl)cc3)n(C[C@H](O)C(F)(F)F)c2=O)n1 [Example 246, 2-[3-({3-(4-Chlorophenyl)-5-oxo-4-[(2S)-3,3,3-trifluoro-2-hydroxypropyl]-4,5-dihydro-1H-1,2,4-triazol-1-yl}methyl)-1H-1,2,4-triazol-1-yl]-N-(trans-4-hydroxycyclohexyl)benzamide] |
| 435 | 73.6 |  | 32000 | O=C(c1cccc(Cl)c1-n1cnc(Cn2nc(-c3ccc(Cl)cc3)n(C[C@@H](O)C(F)(F)F)c2=O)n1)N1CCOCC1 [Example 402, 2-({1-[2-Chloro-6-(morpholin-4-ylcarbonyl)phenyl]-1H-1,2,4-triazol-3-yl}methyl)-5-(4-chlorophenyl)-4-[(2R)-3,3,3-trifluoro-2-hydroxypropyl]-2,4-dihydro-3H-1,2,4-triazol-3-one] |
| 425 | 75.3 |  | 32000 | CC1(C)COCCN1C(=O)c1cccc(Cl)c1-n1cnc(Cn2nc(-c3ccc(Cl)cc3)n(C[C@@H](O)C(F)(F)F)c2=O)n1 [Example 407, 2-[(1-{2-Chloro-6-[(3,3-dimethylmorpholin-4-yl)carbonyl]phenyl}-1H-1,2,4-triazol-3-yl)methyl]-5-(4-chlorophenyl)-4-[(2R)-3,3,3-trifluoro-2-hydroxypropyl]-2,4-dihydro-3H-1,2,4-triazol-3-one] |
